# Test results: publication PMC4122355, “Inhibitor of the Tyrosine Phosphatase STEP Reverses Cognitive Deficits in a Mouse Model of Alzheimer's Disease” (PLoS Biology, 2014)
# Like-named read-outs stand apart in the source and are kept apart here.
# Legend:
# [1] = system: GluN2B (Y1472), Pyk2 (Y402), ERK1/2 (Y204/187) in cortex; assay: Tyr phosphorylation of STEP substrates in cortex of WT mice after i.p. injection; assay type: in vivo, mouse; settings: C57BL/6 mice, 1 mg/kg i.p., 3 h postinjection, relative to vehicle
# Protocol: Wild-type, male C57BL/6 mice (3–6 mo) were used for all studies. […] Cortical tissues were dissected out 3 h postinjection and processed for subcellular fractionation. […] Homogenates were centrifuged at 800 × g to remove nuclei and large debris (P1). Synaptosomal fractions (P2) were prepared from S1 by centrifugation at 9,200 × g for 15 min. The P2 pellet was washed twice and was resuspended in TEVP buffer. […] Samples were prepared and resolved by SDS-PAGE, transferred to nitrocellulose membrane, and incubated with phospho-specific antibodies (anti-pY^204/187 ERK1/2, anti-pY^402 Pyk2, anti-pY^1472 GluN2B) or total protein antibodies (anti-ERK2, anti-Pyk2, and anti-NR2B) overnight at 4°C. Immunoreactivity was visualized using a Chemiluminescent substrate kit (Pierce Biotechnology, Rockford, IL) and detected using a G:BOX with the image program GeneSnap (Syngene, Cambridge, UK). All densitometric quantifications were performed using the Genetools program.
# [2] = system: GluN2B (Y1472), Pyk2 (Y402), ERK1/2 (Y204/187) in cortical neurons; assay: Tyr phosphorylation of STEP substrates in cortical neuronal cultures (Western blot); assay type: cell-based, rat; settings: 1 µM dose, 1 h, relative to vehicle
# Protocol: (§1) Primary cortical neurons were isolated from Sprague Dawley rat embryos (E18) (Charles River Laboratories, Wilmington, MA) as previously described. In some experiments, cortical neurons were made from WT and STEP KO mouse embryos (E18). Neurons were allowed to grow for 18–21 d in CO2 incubator before addition of compounds at indicated doses for 1 h. Immediately following treatments, neurons were lysed in RadioImmuno Precipitation Assay (RIPA) buffer supplied with protease inhibitor cocktail (Roche Applied Science, Indianapolis, IN) and phosphatase inhibitors (NaF and Na3VO4). All experiments were replicated four times with four independent batches of cultures.
# (§2) Samples were prepared and resolved by SDS-PAGE, transferred to nitrocellulose membrane, and incubated with phospho-specific antibodies (anti-pY^204/187 ERK1/2, anti-pY^402 Pyk2, anti-pY^1472 GluN2B) or total protein antibodies (anti-ERK2, anti-Pyk2, and anti-NR2B) overnight at 4°C. Immunoreactivity was visualized using a Chemiluminescent substrate kit (Pierce Biotechnology, Rockford, IL) and detected using a G:BOX with the image program GeneSnap (Syngene, Cambridge, UK). All densitometric quantifications were performed using the Genetools program.
# [3] = cited from earlier work
# [4] = system: GluN2B Y1472, Pyk2 Y402, ERK1/2 Y204/187 in WT and STEP KO cortical neurons; assay: Tyr phosphorylation of STEP substrates in WT and STEP KO mouse cortical cultures; assay type: cell-based; settings: STEP KO cultures, 1 h; TC-2153 0.1 and 1 µM, Na3VO4 1 mM
# Protocol: as §1, §2
structure (smiles),measurement,setting,value
"S1SSSSSSS1 [Compound S8, sulfur (S8)]",pERK1/2 in cortex (P2 fraction),[1],1.57±0.13
same,pGluN2B in cortex (P2 fraction),[1],1.31±0.11
same,pPyk2 in cortex (P2 fraction),[1],1.46±0.14
same,"pERK1/2 (Y204/187), phospho-signal normalized to total protein and GAPDH",[2],1.67±0.14
same,"pGluN2B (Y1472), phospho-signal normalized to total protein and GAPDH",[2],1.33±0.08
same,"pPyk2 (Y402), phospho-signal normalized to total protein and GAPDH",[2],1.49±0.12
same,Solubility in aqueous solution,[3]; stated without reference,poorly soluble
"[Na+].[Na+].[Na+].[O]=[V]([O-])([O-])[O-] [sodium orthovanadate, reference compound]",Tyr phosphorylation of STEP substrates in STEP KO cortical cultures,[4],further increased the Tyr phosphorylation of these substrates
"COc1cc(CCN)c2c(c1OC)SSSSS2 [varacin, reference compound]",Solubility in aqueous solution,[3],reasonable solubility in aqueous solution
